From US20240383852A1, “ANTI-VIRAL COMPOUNDS” (INFEX Therapeutics Limited, priority 2021, published 2024)
Counter-ions that a name gives are not always drawn. Like-named read-outs stand apart in the source and are kept apart here.

What was measured:
SARS-CoV-2 PLpro = target: T1, SARS-CoV-2 PLpro (Severe acute respiratory syndrome coronavirus 2, UniProt P0DTD1); assay: biochemical
T1 construct: containing 60 nM papain-like protease

SARS-CoV-2 = assay: Anti-viral potency in VERO E6 cells (cytopathic viral activity, crystal violet); assay type: cell-based; details: Severe acute respiratory syndrome coronavirus 2, Vero C1008, 48 h, read-out: SARS-COV-2 EC50 (μM)
[1] = test system: human Hep G2 cells (ATCC HB-8065); assay: Cytotoxicity in Hep G2 cells (CellTiter-Glo); assay type: cell-based
[2] = 60 nM papain-like protease, 50 μM Z-RLRGG-AMC, pH 7.5, 37° C., read-out: SARS-CoV-2 PLpro IC50
[3] = Hep G2 cells, 100 μM test article, 24-hour exposure

| SMILES | IC50 (SARS-CoV-2 PLpro; [2]) [nM] | EC50 (SARS-CoV-2) [µM] | % Cell Viability [1, 3] [%] | IC50 (SARS-CoV-2 PLpro) [nM] | % Cell Viability ([1]; human, 24 h, 100 μM) [%] |
| --- | --- | --- | --- | --- | --- |
| COc1cc([C@@H](C)NC(=O)c2cc(N3CCN(C)CC3)ccc2C)ccc1OCCN1CCOCC1 [Example 293, N-[(1R)-1-[3-Methoxy-4-(2-morpholinoethoxy)phenyl]ethyl]-2-methyl-5-(4-methylpiperazin-1-yl)benzamide] | < 2000 | < 5 | 102.3 | – | – |
| COc1cc(OC)c([C@@H](C)NC(=O)c2cc(N3CCN(C)CC3)ccc2C)cc1-c1cnn(C)c1 [Example 215, N-[(1R)-1-[2,4-Dimethoxy-5-(1-methylpyrazol-4-yl)phenyl]ethyl]-2-methyl-5-(4-methylpiperazin-1-yl)benzamide] | < 2000 | < 5 | 80.1 | – | – |
| COc1cc(-c2cnn(C)c2)cc([C@@H](C)NC(=O)c2cc(N3C[C@H]4CC[C@@H](C3)N4)ccc2C)c1 [Example 272, 5-[(1R,5S)-3,8-diazabicyclo[3.2.1]octan-3-yl]-N-[(1R)-1-[3-methoxy-5-(1-methyl-1H-pyrazol-4-yl)phenyl]ethyl]-2-methylbenzamide] | – | < 5 | – | < 2000 | 74.3 |
| COc1ccc([C@@H](C)NC(=O)c2cc(N3C[C@H]4CC[C@@H](C3)N4C)ccc2C)cc1OC [Example 11, N-[(1R)-1-(3,4-Dimethoxyphenyl)ethyl]-2-methyl-5-[(1R,5S)-8-methyl-3,8-diazabicyclo[3.2.1]octan-3-yl]benzamide] | – | < 5 | – | < 2000 | 95.6 |
| COc1cc(-c2cnn(C)c2)cc([C@@H](C)NC(=O)c2cc(N3C[C@H]4C[C@@H]3CN4C)ccc2C)c1 [Example 244, N-[(1R)-1-[3-Methoxy-5-(1-methylpyrazol-4-yl)phenyl]ethyl]-2-methyl-5-[(1R,4R)-5-methyl-2,5-diazabicyclo[2.2.1]heptan-2-yl]benzamide] | < 2000 | < 5 | 67.1 | – | – |
| Cc1ccc(N2CCN(C)CC2)cc1C(=O)N[C@H](C)c1cccc(-c2cn(C)nc2C)c1 [Example 61, N-[(1R)-1-[3-(1,3-Dimethylpyrazol-4-yl)phenyl]ethyl]-2-methyl-5-(4-methylpiperazin-1-yl)benzamide] | < 2000 | < 5 | 69.2 | – | – |
| Cc1ccc(N2CCNCC2)cc1C(=O)N[C@H](C)c1cccc(-c2cnn(C)c2)c1 [Example 72, 2-Methyl-N-[(1R)-1-[3-(1-methylpyrazol-4-yl)phenyl]ethyl]-5-piperazin-1-yl-benzamide] | < 2000 | < 5 | 79.0 | – | – |
| CCn1cc(-c2cc(OC)cc([C@@H](C)NC(=O)c3cc(N4CCN(C)CC4)ccc3C)c2)cn1 [Example 220, N-[(1R)-1-[3-(1-Ethylpyrazol-4-yl)-5-methoxy-phenyl]ethyl]-2-methyl-5-(4-methylpiperazin-1-yl)benzamide] | < 2000 | < 15 | 80.7 | – | – |
| COc1cc(-c2cnn(C3CC3)c2)cc([C@@H](C)NC(=O)c2cc(N3CCN(C)CC3)ccc2C)c1 [Example 221, N-[(1R)-1-[3-(1-Cyclopropylpyrazol-4-yl)-5-methoxy-phenyl]ethyl]-2-methyl-5-(4-methylpiperazin-1-yl)benzamide] | < 2000 | < 5 | 74.9 | – | – |
| COc1ccc(-c2cnn(C)c2)cc1[C@@H](C)NC(=O)c1cc(N2CCN(C)CC2)ccc1C [Example 239, N-[(1R)-1-[2-Methoxy-5-(1-methylpyrazol-4-yl)phenyl]ethyl]-2-methyl-5-(4-methylpiperazin-1-yl)benzamide] | < 2000 | < 5 | 101.6 | – | – |
| COc1cc(-c2cnn(C)c2)cc([C@@H](C)NC(=O)c2cc(N3CCN(CC4CC4)CC3)ccc2C)c1 [Example 245, 5-[4-(Cyclopropylmethyl)piperazin-1-yl]-N-[(1R)-1-[3-methoxy-5-(1-methylpyrazol-4-yl)phenyl]ethyl]-2-methyl-benzamide] | < 2000 | < 5 | 58.4 | – | – |
| COc1cc(-c2cnn(C)c2)cc([C@@H](C)NC(=O)c2cc(N3CCN(C)CC3)ccc2C)c1 [Example 219, N-[(1R)-1-[3-Methoxy-5-(1-methylpyrazol-4-yl)phenyl]ethyl]-2-methyl-5-(4-methylpiperazin-1-yl)benzamide] | < 2000 | < 5 | – | – | – |
| COc1cc(-c2cnn(C)c2C)cc([C@@H](C)NC(=O)c2cc(N3CCN(C)CC3)ccc2C)c1 [Example 253, N-[(1R)-1-[3-(1,5-Dimethylpyrazol-4-yl)-5-methoxy-phenyl]ethyl]-2-methyl-5-(4-methylpiperazin-1-yl)benzamide hydrochloride salt] | < 2000 | < 5 | 89.3 | – | – |
| COc1cc([C@@H](C)NC(=O)c2cc(N3CCN(C)CC3)ccc2C)ccc1-c1cnn(C)c1 [Example 306, N-[(1R)-1-[3-Methoxy-4-(1-methylpyrazol-4-yl)phenyl]ethyl]-2-methyl-5-(4-methylpiperazin-1-yl)benzamide] | < 2000 | < 5 | 88.4 | – | – |
| COc1ccc([C@@H](C)NC(=O)c2cc(N3CC4CNCC4C3)ccc2C)cc1-c1cnn(C)c1 (stereo partly drawn) [Example 261, 5-(2,3,3a,4,6,6a-Hexahydro-1H-pyrrolo[3,4-c]pyrrol-5-yl)-N-[(1R)-1-[4-methoxy-3-(1-methylpyrazol-4-yl)phenyl]ethyl]-2-methyl-benzamide] | < 2000 | < 15 | 49.2 | – | – |
| Cc1ccc(N2CCN(C)CC2)cc1C(=O)N[C@H](C)c1cccc(-c2cccc(N3CCN(CCC(=O)O)CC3)c2)c1 [Example 167, 3-[4-[3-[3-[(1R)-1-[[2-Methyl-5-(4-methylpiperazin-1-yl)benzoyl]amino]ethyl]phenyl]phe-nyl]piperazin-1-yl]propanoic acid] | < 2000 | – | 110.4 | – | – |
| COc1cc(OC)c([C@@H](C)NC(=O)c2cc(N3CCN(C)CC3)ccc2C)cc1-c1ccccc1 [Example 216, N-[(1R)-1-(2,4-Dimethoxy-5-phenyl-phenyl)ethyl]-2-methyl-5-(4-methylpiperazin-1-yl)benzamide] | < 2000 | – | 0.6 | – | – |
| Cc1ccc(N2CCN(C)CC2)cc1C(=O)N[C@H](C)c1cccc(-c2cc[nH]n2)c1 [Example 49, 2-Methyl-5-(4-methylpiperazin-1-yl)-N-[(1R)-1-[3-(1H-pyrazol-3-yl)phenyl]ethyl]benzamide] | < 2000 | – | 82.7 | – | – |
| CNC(=O)c1cc(-c2cc([C@@H](C)NC(=O)c3cc(N4CCN(C)CC4)ccc3C)ccc2OC)cs1 [Example 288, 4-[2-Methoxy-5-[(1R)-1-[[2-methyl-5-(4-methylpiperazin-1-yl)benzoyl]amino]ethyl]phenyl]-N-methyl-thiophene-2-carboxamide] | < 2000 | – | 47.2 | – | – |
| Cc1ccc(N2CCN(C)CC2)cc1C(=O)N[C@H](C)c1cncc(-c2ccccc2)c1 [Example 223, 2-Methyl-5-(4-methylpiperazin-1-yl)-N-[(1R)-1-(5-phenyl-3-pyridyl)ethyl]benzamide] | < 2000 | – | 59.8 | – | – |
| C[C@@H](NC(=O)c1cccc(N2CCN(C)CC2)c1)c1cccc2ccccc12 [Example 2, 3-(4-Methylpiperazin-1-yl)-N-[(1R)-1-(1-naphthyl)ethyl]benzamide] | < 2000 | – | 20.3 | – | – |
| Cc1ccc(N2CCN(C)CC2)cc1C(=O)N[C@H](C)c1cccc(C(=O)NC[C@H](O)CO)c1 [Example 309, N-[(1R)-1-[3-[[(2S)-2,3-Dihydroxypropyl]carbamoyl]phenyl]ethyl]-2-methyl-5-(4-methylpiperazin-1-yl)benzamide] | < 5000 | – | 118.2 | – | – |
| Cc1ccc(N2CCN(C)CC2)cc1C(=O)N[C@H](C)c1ccc(OC(F)(F)F)c(Br)c1 [Example 190, N-[(1R)-1-[3-Bromo-4-(trifluoromethoxy)phenyl]ethyl]-2-methyl-5-(4-methylpiperazin-1-yl)benzamide] | < 5000 | – | 0.9 | – | – |
| COc1ccc([C@@H](C)NC(=O)c2cc(N3CCCN(C)CC3)ccc2C)cc1OC [Example 13, N-[(1R)-1-(3,4-Dimethoxyphenyl)ethyl]-2-methyl-5-(4-methyl-1,4-diazepan-1-yl)benzamide] | < 10000 | – | 103.8 | – | – |
| COc1ccc([C@@H](C)NC(=O)c2cc(N3CCN(C)CC3)ccc2C)cc1C1CCNCC1 [Example 237, N-[(1R)-1-[4-Methoxy-3-(4-piperidyl)phenyl]ethyl]-2-methyl-5-(4-methylpiperazin-1-yl)benzamide] | < 5000 | – | 87.9 | – | – |
| Cc1ccc(N2CCN(C)CC2)cc1C(=O)N[C@H](C)c1cc(-c2cnn(C)c2)cs1 [Example 232, 2-Methyl-5-(4-methylpiperazin-1-yl)-N-[(1R)-1-[4-(1-methylpyrazol-4-yl)-2-thienyl]ethyl]benzamide] | < 5000 | – | 75.2 | – | – |
| Cc1ccc(N2CCN(C)CC2)cc1C(=O)N[C@H](C)c1cccc(-c2ccccc2)c1 [Example 27, 2-Methyl-5-(4-methylpiperazin-1-yl)-N-[(1R)-1-(3-phenylphenyl)ethyl]benzamide] | < 2000 | – | 1.0 | – | – |
| Cc1ccc(N2CCN(C3CC3)CC2)cc1C(=O)N[C@H](C)c1cccc2ccccc12 [Example 115, 5-(4-Cyclopropylpiperazin-1-yl)-2-methyl-N-[(1R)-1-(1-naphthyl)ethyl]benzamide] | < 2000 | – | 26.7 | – | – |
| CC(=O)N1CCN(c2ccc(C)c(C(=O)N[C@H](C)c3cccc4ccccc34)c2)CC1 [Example 109, 5-(4-Acetylpiperazin-1-yl)-2-methyl-N-[(1R)-1-(1-naphthyl)ethyl]benzamide] | < 10000 | – | 72.9 | – | – |
